Patent publication US20240382460A1, “Compositions and Methods for Preventing or Improving Premature Skin Aging” (NANJING NUTRABUILDING BIO-TECH CO., LTD., priority 2022, published 2024)

How the values were obtained:
[1] = system: normal human dermal fibroblasts (NHDF); experiment: UV-induced mtDNA common deletion (Cdel) in fibroblasts, PCR; assay type: cell-based; details: for reduction in Cdel incidence compared to the irradiated control group: UV-irradiated NHDF; for Nest PCR - deleted mtDNA, % Irradiated control / Nest PCR - deleted mtDNA, Relative Intensity / PCR on mtDNA (262 bp) long fragment, % Irradiated control / PCR on mtDNA (262 bp) long fragment, Relative Intensity: irradiated conditions UVA 4 J/cm^2
Procedure: (§1) The normal human dermal fibroblasts (NHDF) were incubated for 16 days, with ultraviolet light exposure three times a day. For the experimental group the cells were treated using medium containing 0.5, 3, 30 μM of ergothioneine.
(§2) Deletions in mtDNA were quantified using qPCR. The 522 bp fragment represents the amount of mtDNA with deletions, whereas the 262 bp fragment reflects the quantity of intact mtDNA, Relative intensity (AU) is typically used to describe the intensity of the fluorescent signal, and its magnitude is proportional to the number of fragments measured. And cell activity was analyzed using WST-8.
FIG. 2 depicts the effect of compound ergothioneine on the UV-induced mtDNA common deletion (Cdel) in fibroblasts—migration of PCR products (262 bp fragment=total mtDNA without Cdel; 522 bp fragment=mtDNA with Cdel) on 1.5% agarose gel.

[2] = system: normal human dermal fibroblasts (NHDF); experiment: Cell viability (WST-8) of UVA-irradiated fibroblasts; assay type: cell-based; details: light or radiation study, irradiated conditions UVA 4 J/cm^2, read-out: Viability (WST-8), % Irradiated control
Procedure: as §1, §2

[3] = animals and humans, even at high doses; cited from earlier work

C[N+](C)(C)[C@@H](Cc1c[nH]c(=S)[nH]1)C(=O)[O-] [Ergothioneine, ergothioneine]
reduction in Cdel incidence compared to the irradiated control group ([1]; 0.5 μM): 56%
Nest PCR - deleted mtDNA, % Irradiated control ([1]; 0.5 μM): 56%
Nest PCR - deleted mtDNA, Relative Intensity ([1]; 0.5 μM): 45153 AU
PCR on mtDNA (262 bp) long fragment, % Irradiated control ([1]; 0.5 μM): 120%
PCR on mtDNA (262 bp) long fragment, Relative Intensity ([1]; 0.5 μM): 663197 AU
reduction in Cdel incidence compared to the irradiated control group ([1]; 3 μM): 67%
Nest PCR - deleted mtDNA, % Irradiated control ([1]; 3 μM): 33%
Nest PCR - deleted mtDNA, Relative Intensity ([1]; 3 μM): 26636 AU
PCR on mtDNA (262 bp) long fragment, % Irradiated control ([1]; 3 μM): 110%
PCR on mtDNA (262 bp) long fragment, Relative Intensity ([1]; 3 μM): 606349 AU
reduction in Cdel incidence compared to the irradiated control group ([1]; 30 μM): 75%
Nest PCR - deleted mtDNA, % Irradiated control ([1]; 30 μM): 25%
Nest PCR - deleted mtDNA, Relative Intensity ([1]; 30 μM): 20645 AU
PCR on mtDNA (262 bp) long fragment, % Irradiated control ([1]; 30 μM): 118%
PCR on mtDNA (262 bp) long fragment, Relative Intensity ([1]; 30 μM): 652512 AU
viability at 0.5 µM ([2]; 0.5 μM): 100%
viability at 3 µM ([2]; 3 μM): 96%
viability at 30 µM ([2]; 30 μM): 96%
toxicity or adverse effects associated with administration [3]: no toxicity or adverse effects
